Experiments:
Type in all cases: cell-based
CK1α = target: T1, CK1α (Homo sapiens, UniProt P48729+Q96SW2); assay: HiBiT degradation assay, CK1α, Procedure A
T1 construct: CSNK1A1-HiBit KI HEK293(LgBit) Cells; host or cells: HEK293(LgBit) knock-in cells
Outline: (§1)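 Luminescence from HiBiT lytic detection, read after 20 min shaking, gave DC50 and Ymin by 4-parameter fit. Before that, cells (1×10^6 cells/ml, DMEM+10% FBS) sat 6 h at 37° C on 10-point compound series (10 μM–0.005 μM, 0.1% DMSO).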

Z-138 cells = assay: Z-138 Proliferation Assay (Cell Titer-Glo); details: 72 hours; for Ymin (%): % remaining (percent of DMSO control); for EC50: Homo sapiens, Cell Titer-Glo, 4-parameter curve fit
Procedure: Z-138 Proliferation Assay
Z-138 cells were cultured in IMDM Medium supplemented with 10% heat in-activated fetal bovine serum and 1% Penicillin-Streptomycin.
10 mM stocks of compound were made from fresh powder. DMSO was added to solid compound so that the final concentration was 10 mM. Compounds were vortexed and allowed to sit for 5 minutes to ensure complete solubility. Solvated compound was aliquoted into 1 ml Eppendorf tubes and stored in a −20° C. freezer.
Z-138 cells were maintained in culture using standard cell culturing techniques.
Cells were maintained at a density of 0.8×10^6 cells/ml.
Re-constitute cell titer-glo reagent according to manufacturer's protocol.
Z-138 cells were removed from culture and cell viability and density were determined using a CellDrop™ Automated Cell Counter with Tryphan blue stain according to manufacturer's protocols. Cells were centrifuged and resuspended using fresh media to a cell density of 0.1×10^6 cells/ml. […] 40 μl of cell suspension was added to the wells of a 384 well tissue culture plate (4,000 cells/well final). Upon completing the addition of the cells to the plate, the plates were centrifuged for 30 seconds at 300 rpms to help the cells settle and to bring air bubbles to the top of the wells. Air bubbles were popped using a pipette tip.
10-point dose response curves were performed using a D300e Digital Dispenser. The highest concentration of compound used in the assay was 10,000 nM. 1:2 dilutions were performed over a 10-point range with the final DMSO concentration being 0.1%. The cells were cultured for 72 hours in the presence of compound.
After 72 hours, the cell plates were removed from the incubator and allowed to equilibrate to room temperature (about 15 minutes). 20 μl of cell titer-glo reagent was added to each well of the 384 well plate. Incubated the plate for 30 minutes in the dark. After 30 minutes, ensured that there were no air bubbles in the plate (popped bubbles with pipette tip if necessary) and analyzed plate using a luminometer.
EC50 curves were generated using Prism Graph Pad. In brief, POCs (percent of control, compound/DMSO control×100) were plotted against the compound concentrations (log scale). EC50 curves were generated using a 4-parameter curve fit.

GSPT1 [1] = target: T2, GSPT1 (Homo sapiens, UniProt P15170+Q96SW2); assay: HiBiT degradation assay, GSPT1, Procedure A; parameters: HiBit-GSPT1 KI HEK293(LgBit) Cells; host or cells: HEK293(LgBit) knock-in cells; details: six hours incubation
T2 sequence (P15170 whole entry): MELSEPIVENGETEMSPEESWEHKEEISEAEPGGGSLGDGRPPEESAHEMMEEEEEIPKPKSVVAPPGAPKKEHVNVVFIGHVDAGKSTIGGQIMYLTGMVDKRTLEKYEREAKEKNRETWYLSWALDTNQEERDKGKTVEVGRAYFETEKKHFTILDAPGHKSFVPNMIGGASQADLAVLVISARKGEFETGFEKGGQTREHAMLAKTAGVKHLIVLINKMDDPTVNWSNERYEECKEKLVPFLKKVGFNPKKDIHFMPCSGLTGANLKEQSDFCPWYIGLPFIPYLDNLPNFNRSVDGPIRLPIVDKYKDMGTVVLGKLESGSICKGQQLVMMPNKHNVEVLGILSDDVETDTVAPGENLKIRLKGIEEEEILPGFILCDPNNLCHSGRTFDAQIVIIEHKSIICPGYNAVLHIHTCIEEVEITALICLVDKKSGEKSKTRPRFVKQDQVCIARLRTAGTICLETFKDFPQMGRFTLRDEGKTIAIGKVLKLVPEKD
T2 sequence (Q96SW2 whole entry): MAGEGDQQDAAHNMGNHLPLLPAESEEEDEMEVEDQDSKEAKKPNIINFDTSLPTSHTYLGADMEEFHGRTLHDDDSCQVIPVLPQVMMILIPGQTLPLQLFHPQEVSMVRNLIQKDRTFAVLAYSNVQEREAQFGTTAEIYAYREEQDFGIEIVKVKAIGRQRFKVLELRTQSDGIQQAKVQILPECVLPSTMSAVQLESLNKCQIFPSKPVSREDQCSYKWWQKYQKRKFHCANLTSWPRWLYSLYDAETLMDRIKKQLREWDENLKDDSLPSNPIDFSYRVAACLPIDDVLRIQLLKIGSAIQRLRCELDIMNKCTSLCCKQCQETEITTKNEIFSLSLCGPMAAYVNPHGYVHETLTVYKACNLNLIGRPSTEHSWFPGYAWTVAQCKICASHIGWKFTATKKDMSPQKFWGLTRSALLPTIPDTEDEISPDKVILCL
T2 sequence (Q16531 whole entry partner): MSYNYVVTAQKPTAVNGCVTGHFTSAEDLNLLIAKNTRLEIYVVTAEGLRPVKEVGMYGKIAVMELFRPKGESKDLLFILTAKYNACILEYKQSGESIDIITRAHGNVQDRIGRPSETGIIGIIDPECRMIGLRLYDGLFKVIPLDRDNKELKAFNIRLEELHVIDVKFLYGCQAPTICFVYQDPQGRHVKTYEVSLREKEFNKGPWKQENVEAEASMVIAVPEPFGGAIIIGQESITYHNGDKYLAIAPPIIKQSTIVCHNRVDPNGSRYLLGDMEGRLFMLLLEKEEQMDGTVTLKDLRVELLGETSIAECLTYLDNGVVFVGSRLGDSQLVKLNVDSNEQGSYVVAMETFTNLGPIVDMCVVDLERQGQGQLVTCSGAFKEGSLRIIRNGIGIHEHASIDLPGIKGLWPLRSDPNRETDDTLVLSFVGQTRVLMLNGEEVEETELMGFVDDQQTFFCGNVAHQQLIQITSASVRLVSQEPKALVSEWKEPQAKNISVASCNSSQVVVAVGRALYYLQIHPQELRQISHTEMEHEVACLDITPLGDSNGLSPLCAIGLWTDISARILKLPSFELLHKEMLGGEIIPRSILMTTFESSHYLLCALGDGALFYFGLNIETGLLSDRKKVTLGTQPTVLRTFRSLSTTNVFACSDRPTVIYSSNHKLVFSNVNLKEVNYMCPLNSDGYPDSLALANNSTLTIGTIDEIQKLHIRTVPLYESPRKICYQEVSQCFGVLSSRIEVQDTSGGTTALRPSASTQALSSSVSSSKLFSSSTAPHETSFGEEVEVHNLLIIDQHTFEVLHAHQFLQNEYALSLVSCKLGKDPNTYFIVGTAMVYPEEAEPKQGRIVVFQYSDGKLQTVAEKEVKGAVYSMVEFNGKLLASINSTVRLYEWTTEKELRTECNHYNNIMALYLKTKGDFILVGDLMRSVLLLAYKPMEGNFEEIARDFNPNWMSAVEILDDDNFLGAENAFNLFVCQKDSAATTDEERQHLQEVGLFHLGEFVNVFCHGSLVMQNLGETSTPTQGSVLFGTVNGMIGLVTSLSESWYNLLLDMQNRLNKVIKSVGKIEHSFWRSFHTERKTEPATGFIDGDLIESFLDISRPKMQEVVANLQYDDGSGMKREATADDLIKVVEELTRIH
Outline: as §1

GSPT1 [2] = target: T2, GSPT1; assay: HiBiT degradation assay, GSPT1, Procedure B (Molt 4_hGSPT1_HiBIT cells); parameters: Molt 4_hGSPT1_HiBIT N-terminus tagged cells were generated using CRISPR technology; endogenous in cells; host or cells: Molt 4 cells, CRISPR-edited; details: six hours
Outline: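 CRISPR N-terminal HiBiT-tagged Molt 4 cells at 1×10^6 cells/ml were treated 6 h at 37° C with compounds (10-point, 10 μM to 0.005 μM, 0.1% DMSO). Remaining HiBiT-GSPT1 was read by lytic luminescence; DC50 and Ymin (% remaining) from a 4-parameter fit.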

T1 sequence (P48729 whole entry): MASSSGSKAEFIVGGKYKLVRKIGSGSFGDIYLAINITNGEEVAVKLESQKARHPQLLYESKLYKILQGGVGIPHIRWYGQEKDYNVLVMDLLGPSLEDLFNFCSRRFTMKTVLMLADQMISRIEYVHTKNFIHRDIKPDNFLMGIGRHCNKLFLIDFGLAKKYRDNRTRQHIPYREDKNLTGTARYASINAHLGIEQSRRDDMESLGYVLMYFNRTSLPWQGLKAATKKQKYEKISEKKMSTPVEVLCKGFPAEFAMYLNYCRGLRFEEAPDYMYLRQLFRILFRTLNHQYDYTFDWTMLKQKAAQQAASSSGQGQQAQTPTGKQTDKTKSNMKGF
T1 sequence (Q96SW2 whole entry): as the sequence (Q96SW2 whole entry) above
T1 sequence (Q16531 whole entry partner): as the sequence (Q16531 whole entry partner) above

CK1α Ymin (CK1α; six hours incubation) | DC50 (CK1α; six hours incubation) | DC50 (GSPT1 [1]) | GSPT1 Ymin (GSPT1 [1]) | CK1α Ymin (CK1α; six hours) | DC50 (CK1α; six hours) | DC50 (GSPT1 [2]) | GSPT1 Ymin (GSPT1 [2]) | SMILES | Ymin (%) (Z-138 cells) | EC50 (Z-138 cells)
C (C = 0-10% remaining) | < 25 nM | < 25 nM | E (E = >25-75% remaining) | – | – | – | – | O=C1CCC(N2Cc3cc(-c4nccn4-c4ccccc4)ccc3C2=O)C(=O)N1 (stereo not shown) [Example 7, 3-(1-Oxo-5-(1-phenyl-1H-imidazol-2-yl)isoindolin-2-yl)piperidine-2,6-dione] | D (0-10% remaining) | < 10 nM
C (C = 0-10% remaining) | < 25 nM | ≥ 25 nM | E (E = >25-75% remaining) | – | – | – | – | Cn1c(C2CC2)nc(-c2ccc3c(c2)CN(C2CCC(=O)NC2=O)C3=O)c1-c1ccccc1 (stereo not shown) [Example 12, 3-(5-(2-cyclopropyl-1-methyl-5-phenyl-1H-imidazol-4-yl)-1-oxoisoindolin-2-yl)piperidine-2,6-dione] | D (0-10% remaining) | < 10 nM
C (C = 0-10% remaining) | < 25 nM | ≥ 25 nM | E (E = >25-75% remaining) | – | – | – | – | Cc1nc(-c2ccc3c(c2)CN(C2CCC(=O)NC2=O)C3=O)c(-c2ccccc2)n1C (stereo not shown) [Example 14, 3-(5-(1,2-Dimethyl-5-phenyl-1H-imidazol-4-yl)-1-oxoisoindolin-2-yl)piperidine-2,6-dione] | D (0-10% remaining) | < 10 nM
C (C = 0-10% remaining) | < 25 nM | ≥ 25 nM | E (E = >25-75% remaining) | – | – | – | – | Cc1c(-c2ccccc2)c(-c2ccc3c(c2)CN(C2CCC(=O)NC2=O)C3=O)nn1C (stereo not shown) [Example 17, 3-(5-(1,5-Dimethyl-4-phenyl-1H-pyrazol-3-yl)-1-oxoisoindolin-2-yl)piperidine-2,6-dione] | D (0-10% remaining) | < 10 nM
C (C = 0-10% remaining) | < 25 nM | ≥ 25 nM | E (E = >25-75% remaining) | – | – | – | – | Cc1nc(-c2ccc3c(c2)CN(C2CCC(=O)NC2=O)C3=O)c(-c2ccccc2)o1 (stereo not shown) [Example 19, 3-(5-(2-Methyl-5-phenyloxazol-4-yl)-1-oxoisoindolin-2-yl)piperidine-2,6-dione] | D (0-10% remaining) | < 10 nM
C (C = 0-10% remaining) | < 25 nM | ≥ 25 nM | F (F = >75-100% remaining) | – | – | – | – | Cn1cc(-c2ccc3c(c2)CN(C2CCC(=O)NC2=O)C3=O)nc1-c1ccccc1 (stereo not shown) [Example 25, 3-(5-(1-Methyl-2-phenyl-1H-imidazol-4-yl)-1-oxoisoindolin-2-yl)piperidine-2,6-dione] | D (0-10% remaining) | < 10 nM
D (D = >10- 25% remaining) | < 25 nM | < 25 nM | E (E = >25-75% remaining) | – | – | – | – | O=C1CCC(N2Cc3cc(-c4cn(-c5ccccc5)cn4)ccc3C2=O)C(=O)N1 (stereo not shown) [Example 32, 3-(1-Oxo-5-(1-phenyl-1H-imidazol-4-yl)isoindolin-2-yl)piperidine-2,6-dione] | D (0-10% remaining) | < 10 nM
– | – | – | – | D (D = >10- 25% remaining) | < 25 nM | – | – | Cn1nc(-c2ccc3c(c2)CN(C2CCC(=O)NC2=O)C3=O)cc1-c1ccc(F)cc1 (stereo not shown) [Example 488, 3-(5-(5-(4-fluorophenyl)-1-methyl-1H-pyrazol-3-yl)-1-oxoisoindolin-2-yl)piperidine-2,6-dione] | E (>10-25% remaining) | 10 to 100 nM
– | – | – | – | E (E = >25-75% remaining) | < 25 nM | ≥ 25 nM | F (F = >75-100% remaining) | Cn1cc(-c2ccc3c(c2)CN(C2CCC(=O)NC2=O)C3=O)nc1[C@H]1[C@@H]2COC[C@@H]21 (stereo partly drawn) [Example 716, 3-(5-(2-((1R,5S,6s)-3-oxabicyclo[3.1.0]hexan-6-yl)-1-methyl-1H-imidazol-4-yl)-1-oxoisoindolin-2-yl)piperidine-2,6-dione] | – | –
– | – | – | – | E (E = >25-75% remaining) | < 25 nM | ≥ 25 nM | F (F = >75-100% remaining) | Cn1cc(-c2ccc3c(c2)CN(C2CCC(=O)NC2=O)C3=O)nc1C12CCC(CC1)CC2 (stereo not shown) [Example 718, 3-(5-(2-(bicyclo[2.2.2]octan-1-yl)-1-methyl-1H-imidazol-4-yl)-1-oxoisoindolin-2-yl)piperidine-2,6-dione] | – | –
– | – | – | – | C (C = 0-10% remaining) | < 25 nM | < 25 nM | E (E = >25-75% remaining) | CCc1nc(-c2ccc3c(c2)CN(C2CCC(=O)NC2=O)C3=O)c(-c2ccccc2)o1 (stereo not shown) [Example 720, 3-(5-(2-ethyl-5-phenyloxazol-4-yl)-1-oxoisoindolin-2-yl) piperidine-2,6-dione] | – | –
– | – | – | – | D (D = >10- 25% remaining) | ≥ 25 nM | ≥ 25 nM | F (F = >75-100% remaining) | Cn1cc(-c2ccc3c(c2)CN(C2CCC(=O)NC2=O)C3=O)nc1-c1ccc(N2CCNCC2)cc1 (stereo not shown) [Example 721] | – | –
– | – | – | – | D (D = >10- 25% remaining) | ≥ 25 nM | < 25 nM | F (F = >75-100% remaining) | Cn1cc(-c2ccc3c(c2)CN(C2CCC(=O)NC2=O)C3=O)nc1-c1ccc2c(c1)CC(=O)N2 (stereo not shown) [Example 722] | – | –
– | – | – | – | C (C = 0-10% remaining) | < 25 nM | ≥ 25 nM | F (F = >75-100% remaining) | CC(=O)Nc1ccc(-c2nc(-c3ccc4c(c3)CN(C3CCC(=O)NC3=O)C4=O)cn2C)cc1 (stereo not shown) [Example 723] | – | –
– | – | – | – | C (C = 0-10% remaining) | < 25 nM | ≥ 25 nM | F (F = >75-100% remaining) | Cn1cc(-c2ccc3c(c2)CN(C2CCC(=O)NC2=O)C3=O)nc1-c1cccc(F)c1F (stereo not shown) [Example 724] | – | –
– | – | – | – | C (C = 0-10% remaining) | < 25 nM | ≥ 25 nM | F (F = >75-100% remaining) | Cn1cc(-c2ccc3c(c2)CN(C2CCC(=O)NC2=O)C3=O)nc1-c1cc(F)ccc1Cl (stereo not shown) [Example 725] | – | –
– | – | – | – | C (C = 0-10% remaining) | < 25 nM | ≥ 25 nM | F (F = >75-100% remaining) | Cn1c(C2CCC2)nc(-c2ccc3c(c2)CN(C2CCC(=O)NC2=O)C3=O)c1-c1ccccc1 (stereo not shown) [Example 727, 3-(5-(2-cyclobutyl-1-methyl-5-phenyl-1H-imidazol-4-yl)-1-oxoisoindolin-2-yl)piperidine-2,6-dione] | – | –
– | – | – | – | C (C = 0-10% remaining) | < 25 nM | ≥ 25 nM | F (F = >75-100% remaining) | O=C1CCC(N2Cc3cc(-c4nc(C5CC5)oc4-c4ccccc4)ccc3C2=O)C(=O)N1 (stereo not shown) [Example 734, 3-(5-(2-cyclopropyl-5-phenyloxazol-4-yl)-1-oxoisoindolin-2-yl)piperidine-2,6-dione] | – | –
– | – | – | – | C (C = 0-10% remaining) | < 25 nM | < 25 nM | E (E = >25-75% remaining) | O=C1CCC(N2Cc3cc(-c4nc(C(F)F)oc4-c4ccccc4)ccc3C2=O)C(=O)N1 (stereo not shown) [Example 735, 3-(5-(2-(difluoromethyl)-5-phenyloxazol-4-yl)-1-oxoisoindolin-2-yl) piperidine-2,6-dione] | – | –

SMILES | CK1α Ymin (CK1α; six hours incubation) | DC50 (CK1α; six hours incubation) | DC50 (GSPT1 [1]) | GSPT1 Ymin (GSPT1 [1]) | CK1α Ymin (CK1α; six hours) | DC50 (CK1α; six hours) | DC50 (GSPT1 [2]) | GSPT1 Ymin (GSPT1 [2]) | Ymin (%) (Z-138 cells) | EC50 (Z-138 cells)
Cn1cc(-c2ccc3c(c2)CN(C2CCC(=O)NC2=O)C3=O)nc1C12CCN(CC1)CC2 (stereo not shown) [Example 719, 3-(5-(1-methyl-2-(quinuclidin-4-yl)-1H-imidazol-4-yl)-1-oxoisoindolin-2-yl)piperidine-2,6-dione] | – | – | – | – | E (E = >25-75% remaining) | ≥ 25 nM | ≥ 25 nM | F (F = >75-100% remaining) | – | –

Reference: patent US20240158370A1, “CK1 alpha AND DUAL CK1 alpha / GSPT1 DEGRADING COMPOUNDS” (Innovo Therapeutics, Inc., priority 2022, published 2024)
